The values that follow are results of earlier work, collected in patent US4127539A, “Novel hexacosapeptides, intermediates therefore and pharmaceutical compositions and methods employing said hexacosapeptides” (priority 1977, dated 1978).

The test system of series [1] is partially purified brain opiate receptor sites. The conditions noted are these: literature, background section.
For series [2] the following is noted: literature, background section.
Series [3] relates to rat. The conditions noted are these: injected directly into the brain of the rat.

“H-Tyr-Gly-Gly-Phe-Met-OH [methionine enkephalin]”: the “binding to partially purified brain opiate receptor sites” value in series [1] was “binds stereo-specifically”. Also, the “activity in bioassays for opiate activity” value in series [2] is given as “very active”. Also, the analgesic effect entry in series [3] was “only weak analgesic agent of short duration”.
